Reference: article PMC9995496, “A screen for MeCP2-TBL1 interaction inhibitors using a luminescence-based assay” (Scientific Reports, 2023)
Structures can show the parent of a compound that is named as a salt. Where two headings read alike, the source gives them in different places.

Test system: PRKACA-PRKAR2A interaction (SmBiT-PRKACA / LgBiT-PRKAR2A), protein kinase A
Parameters: NanoLuc complementation counter-screen in cell extract, PRKACA with PRKAR2A, loss of luminescence, detects NanoLuc interference
Conditions: counter-screen for NanoLuc interference, 0.5 h, 20 µM, inhibitor

Compound | Inh (PKA) [%] | Inh (PKA) (Inh (PKA)) [%]
COc1cc(CCc2cc(NC(=O)c3ccc(N4C[C@@H](C)N[C@@H](C)C4)cc3)n[nH]2)cc(OC)c1 [UM0142009:01, AZD4547] | 12.3 | –
C[C@H]1CO[C@@H]2Cn3cc(C(=O)NCc4ccc(F)cc4F)c(=O)c(O)c3C(=O)N12 [UM0142091:01, GSK744 (S/GSK1265744)] | 7.532 | –
CCS(=O)(=O)N1CCN(c2ccc(Nc3ncc(C(N)=O)c(NC4CC4)n3)cc2)CC1 [UM0142822:01, Cerdulatinib (PRT062070)] | 16.29 | –
COc1ccc(-c2oc3c(CC=C(C)C)c(O[C@@H]4O[C@H](CO)[C@@H](O)[C@H](O)[C@H]4O)cc(O)c3c(=O)c2O[C@@H]2O[C@@H](C)[C@H](O)[C@@H](O)[C@H]2O)cc1 [UM0133190:02, Icariin] | 17.39 | –
N[C@@H](CCC(=O)N[C@@H](CS)C(=O)NCC(=O)O)C(=O)O [UM0120654:03, L-Glutathione Reduced] | -0.7865 | –
S=C(NCc1ccc2c(c1)OCO2)N1CCN(c2ncnc3c2oc2ccccc23)CC1 [UM0141771:01, Amuvatinib (MP-470, HPK 56)] | 7.726 | –
CC(C)CC(=O)Nc1n[nH]c2c1CN(C(=O)C1CCN(C)CC1)C2(C)C [UM0141891:01, PHA-793887] | 3.326 | –
C[C@H](NC(=O)CCC(F)(F)F)C(=O)N[C@@H]1C(=O)N(CCO)c2ncccc2-c2ccccc21 [UM0141669:01, LY3039478] | -1.62 | –
Cc1cn([C@@H]2C[C@@H](O)[C@H](CO)O2)c(=O)[nH]c1=O [UM0142074:01, Telbivudine] | -0.434 | –
O=C(Nc1ccncc1)c1cc([N+](=O)[O-])ccc1Cl [UM0141773:01, T0070907] | 6.091 | –
O=C(Nc1c[nH]nc1-c1nc2ccc(CN3CCOCC3)cc2[nH]1)NC1CC1 [UM0141714:01, AT9283] | 10.96 | –
O=Nc1ccc(O)c2ncccc12 [UM0128576:03, NSC 3852] | 10.59 | –
CC(C)c1nc(N(C)S(C)(=O)=O)nc(-c2ccc(F)cc2)c1/C=C/[C@@H](O)C[C@@H](O)CC(=O)O [UM0142070:01, Rosuvastatin Calcium] | 4.68 | –
COc1ccc(Cl)cc1NC(=O)Nc1cc(C)nc2ccccc12 [UM0127873:03, PQ 401] | 19.94 | –
Cc1cc(-c2ncc(CC(=O)Nc3ccc(-c4cnccn4)cn3)cc2C)ccn1 [UM0142488:01, LGK-974] | 0.7443 | –
COc1cccc2c1C(=O)c1c(O)c3c(c(O)c1C2=O)C[C@@](O)(C(=O)CO)C[C@@H]3O[C@H]1C[C@H](N)[C@H](O)[C@H](C)O1 [UM0133765:03, Doxorubicin] | 45.98 | –
COC1CCN(C(=O)c2cc(Cc3n[nH]c(=O)c4ccccc34)ccc2F)CC1 [UM0141741:01, AZD2461] | 1.514 | –
CC(=O)Oc1cc2c(s1)CCN(C(C(=O)C1CC1)c1ccccc1F)C2 (centres unmarked) [UM0142193:01, Prasugrel hydrochloride] | – | 10.44
COc1cc2ncnc(Nc3cccc(Cl)c3)c2cc1OC [UM0044591:06, AG-1478] | 16.45 | –
O=C(O[C@@H]1Cc2c(O)cc(O)cc2O[C@@H]1c1cc(O)c(O)c(O)c1)c1cc(O)c(O)c(O)c1 [UM0119174:03, (-)-Epigallocatechin gallate (EGCG)] | 17.48 | –

Compound | Inh (PKA) [%] | Inh (PKA) (Inh (PKA)) [%]
CNS(=O)(=O)Cc1ccc2[nH]cc(CCN(C)C)c2c1 [UM0141877:01, Sumatriptan Succinate] | 0.457 | –
CCN=C1N[C@@H]2[C@@H](O)[C@H](O)[C@@H](CO)O[C@@H]2S1 [UM0142409:01, Thiamet G] | -0.5508 | –
O=P(O)(O)C(O)(Cc1cccnc1)P(=O)(O)O [UM0141876:01, Risedronate Sodium] | -0.1627 | –
CCCC(C)NC(=O)c1ccc(Cl)c(Cl)c1 (centres unmarked) [UM0141680:01, NSC 405020] | 15.79 | –
CC(C)C[C@@H](C(=O)N[C@H](C(=O)OC1CCCC1)c1ccccc1)[C@H](O)C(=O)NO [UM0141805:01, Tosedostat (CHR2797)] | 5.594 | –
O=C(O)c1cc(O)c2c(c1)[C@@H]([C@H]1c3cc(C(=O)O)cc(O)c3C(=O)c3c(O[C@@H]4O[C@H](CO)[C@@H](O)[C@H](O)[C@H]4O)cccc31)c1cccc(O[C@@H]3O[C@H](CO)[C@@H](O)[C@H](O)[C@H]3O)c1C2=O [UM0142851:01, Sennoside B] | 36.22 | –
CCN(C)C(=O)Oc1cccc([C@H](C)N(C)C)c1 [UM0142069:01, Rivastigmine Tartrate] | – | 1.4
Oc1ncnc2[nH]ncc12 [UM0142014:01, Allopurinol] | -0.9072 | –
Cc1ccc(-c2cc(C(F)(F)F)nn2-c2ccc(S(N)(=O)=O)cc2)cc1 [UM0121289:03, Celecoxib] | 16.21 | –
Cn1sc(=O)n(Cc2ccccc2)c1=O [UM0127856:02, TDZD-8] | 41.7 | –
C#Cc1cccc(Nc2ncnc3cc(OC)c(OCCCCCCC(=O)NO)cc23)c1 [UM0141699:01, CUDC-101] | 11.72 | –
CC(=O)[C@H]1CC[C@H]2[C@@H]3CC=C4C[C@@H](O)CC[C@]4(C)[C@H]3CC[C@]12C [UM0142285:01, Pregnenolone] | 6.585 | –
COc1cc2nccc(Oc3ccc(NC(=O)C4(C(=O)Nc5ccc(F)cc5)CC4)cc3)c2cc1OC [UM0141491:01, Cabozantinib (XL184, BMS-907351)] | – | 10.46
O=C(NCCCNc1nc(Nc2cccc(NC(=O)N3CCCC3)c2)ncc1I)c1cccs1 [UM0141957:01, BX795] | 37.99 | –
NC(=O)c1cccc(-c2cccc(OC(=O)NC3CCCCC3)c2)c1 [UM0141814:01, URB597] | 16.26 | –
N#Cc1c(-c2ccccc2)cc(-c2cc(Br)ccc2O)[nH]c1=O [UM0141854:01, TCS PIM-1 1] | 47.09 | –
Cc1c(F)cc(C(=O)NC2CC2)cc1-c1ccc(C(=O)NCC(C)(C)C)cn1 [UM0142557:01, Losmapimod] | 0.7266 | –
COc1cc(Nc2ncc(F)c(Nc3ccc4c(n3)NC(=O)C(C)(C)O4)n2)cc(OC)c1OC [UM0141915:01, R406 (free base)] | – | 51.96
CC(C)C(=O)Nc1ccc([N+](=O)[O-])c(C(F)(F)F)c1 [UM0118278:03, Flutamide] | 16.36 | –
Nc1ncn([C@@H]2O[C@H](CO)[C@@H](O)[C@H]2O)c(=O)n1 [UM0133525:02, 5-Azacytidine] | 1.069 | –

Compound | Inh (PKA) [%] | Inh (PKA) (Inh (PKA)) [%]
CC(C)Cc1ccc([C@@H](C)C(=O)NS(C)(=O)=O)cc1 [UM0141612:01, Reparixin] | – | 5.153
Cc1cnc(-c2cnc(NCCNc3ccc(C#N)cn3)nc2-c2ccc(Cl)cc2Cl)[nH]1 [UM0141499:01, CHIR-99021 (CT99021)] | 50.27 | –
O=C1NCCCc2c1oc1ccc(O)cc21 [UM0142113:01, CID 755673] | 2.979 | –
CCC1=C(C)CN(C(=O)NCCc2ccc(S(=O)(=O)NC(=O)N[C@H]3CC[C@H](C)CC3)cc2)C1=O [UM0134252:02, Glimepiride] | 4.382 | –
CN(C)C/C=C/C(=O)Nc1cc2c(Nc3ccc(F)c(Cl)c3)ncnc2cc1O[C@H]1CCOC1 [UM0141512:01, Afatinib dimaleate] | – | 6.216
N#Cc1ccc(NCCNCC(=O)N2CCC[C@H]2C#N)nc1 [UM0141834:01, NVP DPP 728 dihydrochloride] | -0.6384 | –
CC(C)(C)Cn1c(N)nc2ccc(-c3[nH]c(C(C)(C)C)nc3-c3ccc(F)cc3)nc21 [UM0141895:01, LY2228820] | 34.84 | –
O=C(CCCCCCC(=O)Nc1ccc(I)cc1)NO [UM0142835:01, 4-iodo-SAHA] | 5.197 | –
O=C(NCc1ccncc1)C12CC3CC(C1)CC(c1ccc(Cl)cc1)(C3)C2 [UM0142183:01, ABC294640] | 8.98 | –
CCOC(=O)COc1ccc(/C=C2\SC(=S)NC2=O)cc1OC [UM0142743:01, IMR-1] | 35.49 | –
COc1cc([C@@H]2c3cc4c(cc3[C@H](O)[C@H]3COC(=O)[C@@H]23)OCO4)cc(OC)c1OC [UM0141523:01, AXL1717] | 8.722 | –
CC(C)n1nc(-c2ccc3oc(N)nc3c2)c2c(N)ncnc21 [UM0142084:01, INK 128 (MLN0128)] | 29.78 | –
Nc1nccc(Oc2ccc3c(C(=O)Nc4cccc(C(F)(F)F)c4)cccc3c2)n1 [UM0142802:01, BAW2881 (NVP-BAW2881)] | 7.673 | –
CNC(=O)[C@H](Cc1ccccc1)NC(=O)[C@H](CC(C)C)[C@H](CSc1cccs1)C(=O)NO [UM0141470:01, Batimastat (BB-94)] | 1.977 | –
C[C@@H]1CC(=O)Nc2cccc(-c3ccc4c(c3)c(-c3cnn(C)c3)nn4C)c2N1 [UM0142803:01, CPI-637] | 3.742 | –
CC[N+](C)(C)c1cccc(O)c1 [UM0118243:03, Edrophonium (chloride)] | -0.559 | –
N#Cc1cnc(Nc2cc(NC[C@H]3CNCCO3)c(C(F)(F)F)cn2)cn1 [UM0142825:01, CCT245737] | 4.036 | –
CC(C)(C#N)c1ccc(N2C(=O)OCc3cnc4ccc(-c5cnc6ccccc6c5)cc4c32)cc1 [UM0135469:02, ETP-46464] | 11.28 | –
CC(C)(Oc1ccc(C2CC2(Cl)Cl)cc1)C(=O)O (centres unmarked) [UM0119000:03, Ciprofibrate] | 9.84 | –
